Reference: patent publication US9856262B2, “Analogues of 4H-pyrazolo[1,5-a] benzimidazole compound as PARP inhibitors” (HUBEI BIO-PHARMACEUTICAL INDUSTRIAL TECHNOLOGICAL INSTITUTE …, priority 2014, dated 2018)
Where two headings read alike, the source gives them in different places.

Columns and labels:
PARP-1 = target: T1, PARP-1 (Homo sapiens, UniProt P09874); test: PARP enzymatic assay (HT Universal Colorimetric PARP1 Assay Kit); format: biochemical; details: read-out: PARP-1 enzymatic inhibition IC50
T1 construct: purchased
In short: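 Inhibition of PARP1 was measured with the HT Universal Colorimetric PARP1 Assay Kit. A 96-well plate was coated with histone proteins overnight at 4° C, washed with PBST, and blocked for 30 min at room temperature. Test compound and 20 μl of PARP1 (1 nM) were then added and incubated. Streptavidin-HRP (1:50) and chemiluminescent HRP substrate were added, and the signal was read on an Envision microplate reader.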

HCC1937 cells = test: Cellular PARylation assay; format: cell-based; details: Homo sapiens
In short: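 HCC1937 cells pretreated 30 min with compound, then stimulated with 1 mM H2O2 for 10 min. Fixed cells immunostained with anti-PAR 10H and FITC secondary, with DAPI counterstain; fluorescence read on a plate reader.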

[1] = HCC1937 cells, compound 30 min then 1 mM H2O2 10 min, read-out: cellular PARylation EC50

T1 sequence (P09874 whole entry): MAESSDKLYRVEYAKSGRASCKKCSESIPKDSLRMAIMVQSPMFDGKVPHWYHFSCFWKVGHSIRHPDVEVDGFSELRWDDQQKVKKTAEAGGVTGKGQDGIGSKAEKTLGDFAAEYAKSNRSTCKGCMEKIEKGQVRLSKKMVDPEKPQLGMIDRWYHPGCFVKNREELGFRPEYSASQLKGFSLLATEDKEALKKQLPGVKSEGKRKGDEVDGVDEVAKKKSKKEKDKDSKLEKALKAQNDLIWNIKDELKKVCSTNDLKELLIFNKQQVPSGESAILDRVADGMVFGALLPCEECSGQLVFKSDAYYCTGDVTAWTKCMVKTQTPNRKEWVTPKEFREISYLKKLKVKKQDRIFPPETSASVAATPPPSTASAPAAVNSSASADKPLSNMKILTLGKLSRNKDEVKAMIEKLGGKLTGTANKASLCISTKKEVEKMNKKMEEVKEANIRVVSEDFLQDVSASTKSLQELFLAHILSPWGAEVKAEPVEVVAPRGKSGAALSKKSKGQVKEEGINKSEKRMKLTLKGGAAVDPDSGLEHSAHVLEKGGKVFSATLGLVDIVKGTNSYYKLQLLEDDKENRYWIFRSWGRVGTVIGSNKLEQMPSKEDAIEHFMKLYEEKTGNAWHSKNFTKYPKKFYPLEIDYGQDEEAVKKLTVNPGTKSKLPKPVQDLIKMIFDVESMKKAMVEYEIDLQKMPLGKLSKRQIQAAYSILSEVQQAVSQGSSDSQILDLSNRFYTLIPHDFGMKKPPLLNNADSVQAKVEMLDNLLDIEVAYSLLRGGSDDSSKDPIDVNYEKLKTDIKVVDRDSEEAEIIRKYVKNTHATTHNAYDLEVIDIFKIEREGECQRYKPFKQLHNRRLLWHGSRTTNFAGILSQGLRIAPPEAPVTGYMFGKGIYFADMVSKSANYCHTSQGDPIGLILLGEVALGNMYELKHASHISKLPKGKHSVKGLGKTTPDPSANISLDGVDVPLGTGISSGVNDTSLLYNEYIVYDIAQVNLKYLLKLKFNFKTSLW

Structure (SMILES) | IC50 (PARP-1) [nM] | EC50 (HCC1937 cells; [1]) [nM] | EC50 (HCC1937 cells; HCC1937, read-out: cellular PARylation EC50) [nM]
CC1(c2cnn3c2[nH]c2cc(F)cc(C(N)=O)c23)CCN(CC2CC2(F)F)C1 (stereo not shown) [Example 96, 3-(1-((2,2-difluorocyclopropyl)methyl)-3-methylpyrrolidin-3-yl)-6-fluoro-4H-benzo[4,5]imidazo[1,2-b]pyrazole-8-carboxamide] | 1 to 100 | 1 to 100 | 
CC1(c2cnn3c2[nH]c2cc(F)cc(C(N)=O)c23)CCN(CC2(C#N)CCC2)C1 (stereo not shown) [Example 101, 3-(1-((1-cyanocyclobutyl)methyl)-3-methylpyrrolidin-3-yl)-6-fluoro-4H-benzo[4,5]imidazo[1,2-b]pyrazole-8-carboxamide] | 1 to 100 | 101 to 1000 | 
CC(C)CN1CCC(C)(c2cnn3c2[nH]c2cc(F)cc(C(N)=O)c23)CC1 [Example 82, 6-fluoro-3-(1-isobutyl-4-methylpiperidin-4-yl)-4H-benzo[4,5]imidazo[1,2-b]pyrazole-8-carboxamide] | 1 to 100 | 1 to 100 | 
Cc1nn2c([nH]c3cc(F)cc(C(N)=O)c32)c1C1(C)CCN(CC(C)C)CC1 [Example 113, 6-fluoro-3-(1-isobutyl-4-methylpiperidin-4-yl)-2-methyl-4H-benzo[4,5]imidazo[1,2-b]pyrazole-8-carboxamide] | 1 to 100 | 1 to 100 | 
CC1(c2cnn3c2[nH]c2cc(F)cc(C(N)=O)c23)CCN(CC2CCOCC2)CC1 [Example 66, 6-fluoro-3-(4-methyl-1-((tetrahydro-2H-pyran-4-yl)methyl)piperidin-4-yl)-4H-benzo[4,5]imidazo[1,2-b]pyrazole-8-carboxamide] | 1 to 100 | 1 to 100 | 
NC(=O)c1cc(F)cc2[nH]c3c(C4CCN(CCO)CC4)cnn3c12 [Example 16, 6-fluoro-3-(1-(2-hydroxyethyl)piperidin-4-yl)-4H-benzo[4,5]imidazo[1,2-b]pyrazole-8-carboxamide] | 1 to 100 | 1 to 100 | 
CCN1CCC(c2cnn3c2[nH]c2cccc(C(N)=O)c23)CC1 [Example 27, 3-(1-ethylpiperidin-4-yl)-4H-benzo[4,5]imidazo[1,2-b]pyrazole-8-carboxamide] | 1 to 100 | 1 to 100 | 
NC(=O)c1cc(F)cc2[nH]c3c(C4CCNCC4)cnn3c12 [Example 1, 6-fluoro-3-(piperidin-4-yl)-4H-benzo[4,5]imidazo[1,2-b]pyrazole-8-carboxamide] | 1 to 100 | 101 to 1000 | 
Cc1nn2c([nH]c3cc(F)cc(C(N)=O)c32)c1C1(C)CCN(C)CC1 [Example 115, 3-(1,4-dimethylpiperidin-4-yl)-6-fluoro-2-methyl-4H-benzo[4,5]imidazo[1,2-b]pyrazole-8-carboxamide] | 1 to 100 | 1 to 100 | 
CC(C)N1CCC(C)(c2cnn3c2[nH]c2cc(F)cc(C(N)=O)c23)CC1 [Example 105, 6-fluoro-3-(1-isopropyl-4-methylpiperidin-4-yl)-4H-benzo[4,5]imidazo[1,2-b]pyrazole-8-carboxamide] | 1 to 100 | 1 to 100 | 
CC(C)(O)CN1CCC(c2cnn3c2[nH]c2cc(F)cc(C(N)=O)c23)CC1 [Example 6, 6-fluoro-3-(1-(2-hydroxy-2-methylpropyl)piperidin-4-yl)-4H-benzo[4,5]imidazo[1,2-b]pyrazole-8-carboxamide] | 1 to 100 | 1 to 100 | 
NC(=O)c1cc(F)cc2[nH]c3c(-c4ccc(F)cc4)cnn3c12 [Example 41, 6-fluoro-3-(4-fluorophenyl)-4H-benzo[4,5]imidazo[1,2-b]pyrazole-8-carboxamide] | 101 to 1000 | > 1000 | 
NC(=O)c1cc(F)cc2[nH]c3c(C4CCN(CCF)CC4)cnn3c12 [Example 3, 6-fluoro-3-(1-(2-fluoroethyl)piperidin-4-yl)-4H-benzo[4,5]imidazo[1,2-b]pyrazole-8-carboxamide] | 1 to 100 | 1 to 100 | 
COC(=O)C1(c2cnn3c2[nH]c2cc(F)cc(C(N)=O)c23)CCN(CC2CC2)CC1 [Example 110, methyl 4-(8-carbamoyl-6-fluoro-4H-benzo[4,5]imidazo[1,2-b]pyrazol-3-yl)-1-(cyclopropylmethyl)piperidine-4-carboxylate] | 1 to 100 |  | 101 to 1000
NC(=O)c1cc(F)cc2[nH]c3c(C4CC(O)CN4)cnn3c12 (stereo not shown) [Example 36, 6-fluoro-3-(4-hydroxypyrrolidin-2-yl)-4H-benzo[4,5]imidazo[1,2-b]pyrazole-8-carboxamide] | 1 to 100 | 101 to 1000 | 
CN(C)C(=O)C1CC1CN1CCC(C)(c2cnn3c2[nH]c2cc(F)cc(C(N)=O)c23)CC1 (stereo not shown) [Example 81] | 1 to 100 | 1 to 100 | 
CN1CC(CN2CCC(C)(c3cnn4c3[nH]c3cc(F)cc(C(N)=O)c34)CC2)C1 [Example 79, 6-fluoro-3-(4-methyl-1-((1-methylazetidin-3-yl)methyl)piperidin-4-yl)-4H-benzo[4,5]imidazo[1,2-b]pyrazole-8-carboxamide] | 1 to 100 | 1 to 100 | 
CC1(c2cnn3c2[nH]c2cc(F)cc(C(N)=O)c23)CCN(C2CC(F)C2)CC1 (stereo not shown) [Example 76, 6-fluoro-3-(1-(3-fluorocyclobutyl)-4-methylpiperidin-4-yl)-4H-benzo[4,5]imidazo[1,2-b]pyrazole-8-carboxamide] | 1 to 100 | 1 to 100 | 
CN1CCC(c2cnn3c2[nH]c2cc(F)cc(C(N)=O)c23)CC1 [Example 9, 6-fluoro-3-(1-methylpiperidin-4-yl)-4H-benzo[4,5]imidazo[1,2-b]pyrazole-8-carboxamide] | 1 to 100 | 1 to 100 | 
CCOC(=O)C1CC1CN1CCC(C)(c2cnn3c2[nH]c2cc(F)cc(C(N)=O)c23)CC1 (stereo not shown) [Example 80, ethyl 2-((4-(8-carbamoyl-6-fluoro-4H-benzo[4,5]imidazo[1,2-b]pyrazol-3-yl)-4-methylpiperidin-1-yl)methyl)cyclopropanecarboxylate] | 1 to 100 | 1 to 100 | 
